Measurements published in US20080118493A1, “Elevated Hedgehog Pathway Activity In Digestive System Tumors, And Methods Of Treating Digestive Sytem Tumors Having Elevated Hedgehog Pathway Activity” (priority 2003, published 2008).

Experiments:
[1] = test system: single passage pancreatic cancer xenograft cells; test: Proliferation (MTS) assay in first passage pancreatic cancer xenograft cells; type: cell-based, human
Text: (§1) Cells and tissues: Origins and sources of cells and tissues are described in the Table (below). First passage pancreatic cancer xenografts were derived from freshly harvested pancreaticoduodenectomy specimens as described^14. […] After reaching 25 mm in greatest dimension, xenograft tumors were harvested, minced, and plated into tissue culture vessels in RPMI, 20% Fetal Bovine Serum (FBS) for assays as described below. The diagnosis of frozen samples from gastric and pancreatic adenocarcinoma resections and adjacent normal stomach and pancreas was microscopically confirmed by two pathologists, and RNA was prepared as described^14.

[2] = test system: PZp53MED1 medulloblastoma cells; test: Proliferation assay in medulloblastoma cells; type: cell-based; settings: medulloblastoma cells from a mouse model of Gorlin syndrome, loss of PTCH function
[3] = test system: Hh pathway activity; test: Hh-inducible reporter assay in HuCCT1 cholangiocarcinoma cells; type: cell-based, human; settings: purified SHH ligand to 25 nM
Description: (§2) Hh-responsive reporter assays: Hh-responsive firefly luciferase and control SV-40 Renilla luciferase reporter assays were performed on subconfluent triplicate cultures as described^22.

[4] = test system: tumor cell lines from esophagus, stomach, biliary tract, and pancreas; test: cells
Description: Viable cell mass was determined by optical density measurements at 490 nm (O.D.490) at 2 and 4 days using the CellTiter96® colorimetric assay (Promega; Madison Wis.). Relative growth was calculated as {OD (day 4)-OD (day 2)}/OD (day 2).

[5] = test system: HuCCT1 human cholangiocarcinoma xenograft; test: HuCCT1 xenograft treatment in athymic (nude) mice; type: in vivo; settings: 50 mg/kg/day, subcutaneous injection
[6] = test system: Hh pathway activity; test: Hh-responsive reporter assay in first passage pancreas carcinoma xenograft cells; type: cell-based, human; settings: PTCH-expressing primary xenografts; 3.0 μM cyclopamine
Text: as §1, §2

[7] = test system: PZp53MED1 medulloblastoma cells; settings: medulloblastoma-derived cells; cited from earlier work

Molecule	growth as a function of added SHH concentration ([1]; PX184 cells with 5E1 at a level just sufficient to block growth (0.1 μg/ml))	growth ([1]; single passage pancreatic tumor xenograft that did not express PTCH mRNA (PX169))	change in growth [2]	augmentation of reporter activity [3]	significant growth inhibition, dependence on PTCH mRNA expression ([4]; 3.0 μM cyclopamine, MTS assay)	inhibition at 3 µM ([4]; Homo sapiens, read-out: growth inhibition)	survival and adverse reactions ([5]; daily)	tumor regression (xenograft tumor volume) ([5]; within 14 days, tumors grown to 180 mm^3, n=9)	GLI reporter expression [6]	cell killing [7]
SHH ligand: recombinant doubly lipid modified Sonic hedgehog (ShhNp) peptide	Growth correlated positively with increasing concentrations	did not significantly affect growth	No significant ligand-induced or antibody-induced change in growth	approximately 8 fold	–	–	–	–	–	–
CC1=C2C[C@H]3[C@@H](CC=C4C[C@@H](O)CC[C@@]43C)[C@@H]2CC[C@]12O[C@@H]1C[C@H](C)CN[C@H]1[C@H]2C [cyclopamine]	–	–	–	–	only in tumor lines expressing PTCH mRNA	75 to 95%	all mice survived cyclopamine treatment without obvious adverse reactions	Complete or near complete regression of all nine treated tumors	cyclopamine-sensitive	can be killed by cyclopamine treatment
